Structures can show the parent of a compound that is named as a salt. Where two headings read alike, the source gives them in different places.
Tests used:
[1] = molecular target: T1, human M3 receptor (Homo sapiens, UniProt P20309); assay: Test for binding to human M3 receptor
T1 construct: expressed in transfected cells; host or cells: CHO cells
Outline: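 CHO-cell crude membranes expressing human M3 were incubated with [N-methyl-3H]-(−)-scopolamine methyl chloride in 50 mM Tris-HCl, 0.5 mM EDTA, pH 7.4, for 60 min at room temperature. Bound ligand was collected on PEI-pretreated glass-fibre filters and counted by liquid scintillation. Ki was calculated from IC50 and the radioligand Kd.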

[2] = molecular target: T2, neurokinin NK1 receptor (Cavia porcellus, UniProt P30547); assay: Effect of suppressing substance P-induced airway contraction (in vivo, intratracheal administration); set-up: species or system guinea pig; conditions: guinea pig; guinea pigs, intratracheal administration 60 minutes before 20 μg/kg i.v. SP; AUC of increase in airway pressure over 10 minutes; read-out: ID50 (the source's name)
T2 construct: Using healthy guinea pigs (body weight, 350 to 550 g; Hartley male guinea pigs); from tissue; host or cells: live anaesthetised Hartley male guinea pigs (airway, in vivo)
Experimental: Using healthy guinea pigs (body weight, 350 to 550 g; Hartley male guinea pigs), the effect of suppressing airway contraction induced by substance P (SP), which is an NK1 receptor agonist, was examined by a modified method of Konzett-Roessler (Naunyn-Schmiedebergs Arch. Exp. Pathol. Pharmakol. 195, 71 [1940]) using airway pressure as an indicator.
A tracheal cannula and a venous cannula were attached to a guinea pig anesthetized with pentobarbital (50 mg/mL solution, 0.40 to 0.50 mL/body, subcutaneous administration). An arterial cannula filled with heparin-containing physiological saline (100 U/mL) was further attached, and blood pressure and heart rate were monitored via an amplifier and an instantaneous heart rate meter. Subsequently, gallamine (20 mg/body, intravenous administration) was administered to terminate spontaneous breathing, and then 10 mL/kg of positive pressure breathing (Ugo-Basile Biological Research Apparatus, Cat. No. 7025) was rapidly performed at 60 times/min. The airway pressure during artificial breathing was detected with a pressure transducer (TP-200T or TP-400T; Nihon Kohden Corporation) attached to a side branch of the tracheal cannula, amplified (AP-601G; Nihon Kohden Corporation), and recorded in a recorder. After the airway pressure, blood pressure, and heart rate were stabilized, 20 μg/kg of SP was intravenously administered from the venous cannula to induce airway contraction, and the airway pressure was measured for the following 10 minutes.
The test substance was dissolved in a 5% glucose solution, a 0.5 mL/kg solution was intratracheally administered with an intratracheal administration apparatus (model 1A-1B; Penn-Century, Inc.) 60 minutes before stimulation with SP.
The AUC of increase in the airway pressure over 10 minutes after administration of SP was determined as the intensity of SP-induced airway contraction and calculated as an ID50 value from the inhibition rate based on the value of the control group (5% glucose solution intratracheal administration group).

[3] = molecular target: T3, human NK2 receptor (Homo sapiens, UniProt P21452); assay: Test for binding to human NK2 receptor
T3 construct: expressed in transfected cells; host or cells: COS cells
T3 sequence (P21452 1-398): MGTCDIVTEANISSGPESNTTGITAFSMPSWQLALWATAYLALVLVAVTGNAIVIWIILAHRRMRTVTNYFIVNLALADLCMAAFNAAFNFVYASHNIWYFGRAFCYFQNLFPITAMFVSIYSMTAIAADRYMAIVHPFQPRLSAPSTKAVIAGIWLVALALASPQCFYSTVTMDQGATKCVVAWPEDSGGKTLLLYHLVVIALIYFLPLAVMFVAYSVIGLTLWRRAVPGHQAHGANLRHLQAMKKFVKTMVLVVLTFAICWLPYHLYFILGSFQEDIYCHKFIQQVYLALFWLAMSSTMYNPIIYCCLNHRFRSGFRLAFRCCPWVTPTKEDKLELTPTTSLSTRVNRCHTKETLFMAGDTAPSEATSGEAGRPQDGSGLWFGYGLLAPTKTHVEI
Outline: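 Radioligand binding with [^3H]SR 48968 on cryopreserved COS cells expressing human NK2 receptor (5.0×10^5 cells/mL), in 50 mM Tris-HCl pH 7.4 with BSA, MnCl2 and protease inhibitors. Bound label collected on PEI-treated GF/B filters, counted by liquid scintillation; Ki derived from IC50 and radioligand Kd.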

[4] = CHO cells expressing human M3 receptor, [N-methyl-3H]-(-)-Scopolamine methyl chloride 0.5 nM, Ki from IC50 and Kd, read-out: Ki
[5] = COS cells expressing human NK2 receptor, [3H]SR 48968 1 nM, Ki from IC50 and Kd, read-out: Ki

T2 sequence (P30547 whole entry): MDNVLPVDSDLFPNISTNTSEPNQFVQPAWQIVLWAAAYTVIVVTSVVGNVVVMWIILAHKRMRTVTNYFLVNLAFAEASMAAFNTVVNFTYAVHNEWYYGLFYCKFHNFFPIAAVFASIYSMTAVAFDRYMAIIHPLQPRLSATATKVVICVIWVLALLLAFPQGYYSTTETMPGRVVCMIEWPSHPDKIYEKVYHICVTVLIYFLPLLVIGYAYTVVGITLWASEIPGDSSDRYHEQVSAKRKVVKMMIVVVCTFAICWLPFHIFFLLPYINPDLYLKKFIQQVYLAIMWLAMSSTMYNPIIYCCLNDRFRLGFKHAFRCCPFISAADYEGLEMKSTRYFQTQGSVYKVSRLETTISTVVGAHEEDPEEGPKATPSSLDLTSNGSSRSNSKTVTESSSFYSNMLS
T1 sequence (P20309 whole entry): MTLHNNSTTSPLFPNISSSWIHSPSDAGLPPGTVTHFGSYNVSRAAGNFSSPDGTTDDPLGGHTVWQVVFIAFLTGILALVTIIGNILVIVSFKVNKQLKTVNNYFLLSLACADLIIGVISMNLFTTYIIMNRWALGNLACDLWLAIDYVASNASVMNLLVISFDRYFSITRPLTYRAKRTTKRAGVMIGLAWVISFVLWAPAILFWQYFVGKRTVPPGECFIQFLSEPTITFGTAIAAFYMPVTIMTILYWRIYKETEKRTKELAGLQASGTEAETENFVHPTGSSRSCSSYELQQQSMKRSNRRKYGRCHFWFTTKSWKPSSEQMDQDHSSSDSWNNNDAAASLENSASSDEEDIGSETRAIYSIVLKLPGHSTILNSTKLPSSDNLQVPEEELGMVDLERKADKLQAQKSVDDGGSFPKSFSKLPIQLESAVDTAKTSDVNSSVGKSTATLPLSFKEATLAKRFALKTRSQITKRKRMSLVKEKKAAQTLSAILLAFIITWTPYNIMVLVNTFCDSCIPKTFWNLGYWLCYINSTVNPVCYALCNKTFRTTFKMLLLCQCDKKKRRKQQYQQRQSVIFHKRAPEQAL

Row | SMILES | Ki [1] | ED50 [2] | Ki [3] | Ki [1, 4] | Ki [3, 5]
1 | CN(CCN1CCC(OC(=O)Nc2ccccc2-c2ccccc2)CC1)C(=O)CCCCCNc1ccc(C(=O)N2CCCN(C(=O)CO[C@H]3Cc4ccccc4C34CCN(CC[C@@]3(c5ccc(F)cc5)CN(C(=O)c5cc(C(F)(F)F)cc(C(F)(F)F)c5)CO3)CC4)CC2)cc1 [Example 110, 1-{2-[{6-[(4-{[4-({[(2S)-1′-{2-[(5R)-3-[3,5-Bis(trifluoromethyl)benzoyl]-5-(4-fluorophenyl)-1,3-oxazolidin-5-yl)ethyl}-2,3-dihydrospiro[indene-1,4′-piperidin]-2-yl]oxy}acetyl)-1,4-diazepan-1-yl]carbonyl}phenyl)amino]hexanoyl}(methyl)amino]ethyl}piperidin-4-yl biphenyl-2-ylcarbamate trihydrochloride] | 930 pM | 0.0174 mg/kg | 600 pM |  | 
2 | CN(CCN1CCC(OC(=O)Nc2ccccc2-c2ccccc2)CC1)C(=O)CCCCCNCc1ccc(C(=O)N(C)CCCN(C)C(=O)CO[C@H]2Cc3ccccc3C23CCN(CC[C@@]2(c4ccc(F)cc4)CN(C(=O)c4cc(C(F)(F)F)cc(C(F)(F)F)c4)CO2)CC3)s1 [Example 1, 1-{2-[{6-[({5-[{3-[({[(2S)-1′-{2-[(5R)-3-[3,5-Bis(trifluoromethyl)benzoyl]-5-(4-fluorophenyl)-1,3-oxazolidin-5-yl]ethyl}-2,3-dihydrospiro[indene-1,4′-piperidin]-2-yl]oxy}acetyl)(methyl)amino]propyl}(methyl)carbamoyl]-2-thienyl}methyl)amino]hexanoyl}(methyl)amino]ethyl}piperidin-4-yl biphenyl-2-ylcarbamate] |  | 0.0147 mg/kg |  | 1400 pM | 570 pM
3 | CN(CCN1CCC(OC(=O)Nc2ccccc2-c2ccccc2)CC1)C(=O)CCCNc1ccc(C(=O)N(C)CCCN(C)C(=O)CO[C@H]2Cc3ccccc3C23CCN(CC[C@@]2(c4ccc(F)cc4)CN(C(=O)c4cc(C(F)(F)F)cc(C(F)(F)F)c4)CO2)CC3)cc1 [Example 34, 1-(2-{[4-({4-[{3-[({[(2S)-1′-{2-[(5R)-3-[3,5-Bis(trifluoromethyl)benzoyl]-5-(4-fluorophenyl)-1,3-oxazolidin-5-yl]ethyl}-2,3-dihydrospiro[indene-1,4′-piperidin]-2-yl]oxy}acetyl)(methyl)amino]propyl}(methyl)carbamoyl]phenyl}amino)butanoyl](methyl)amino}ethyl)piperidin-4-yl biphenyl-2-ylcarbamate trihydrochloride] | 1500 pM | 0.0308 mg/kg | 540 pM |  | 
4 | CN(CCN1CCC(OC(=O)Nc2ccccc2-c2ccccc2)CC1)C(=O)CCOCCNc1ccc(C(=O)N(C)CCCN(C)C(=O)CO[C@H]2Cc3ccccc3C23CCN(CC[C@@]2(c4ccc(F)cc4)CN(C(=O)c4cc(C(F)(F)F)cc(C(F)(F)F)c4)CO2)CC3)cc1 [Example 29, 1-{2-[{3-[2-({4-[{3-[({[(2S)-1′-{2-[(5R)-3-[3,5-Bis(trifluoromethyl)benzoyl]-5-(4-fluorophenyl)-1,3-oxazolidin-5-yl]ethyl}-2,3-dihydrospiro[indene-1,4′-piperidin]-2-yl]oxy}acetyl)(methy)amino]propyl}(methyl)carbamoyl]phenyl}amino)ethoxy]propanoyl}(methyl)amino]ethyl}piperidin-4-yl biphenyl-2-ylcarbamate trihydrochloride] |  | 0.0292 mg/kg |  | 1700 pM | 760 pM
5 | CN(CCN1CCC(OC(=O)Nc2ccccc2-c2ccccc2)CC1)C(=O)CCCCCNc1ccc(C(=O)N(C)CCN(C)C(=O)CO[C@H]2Cc3ccccc3C23CCN(CC[C@@]2(c4ccc(F)cc4)CN(C(=O)c4cc(C(F)(F)F)cc(C(F)(F)F)c4)CO2)CC3)cc1 [Example 16, 1-(2-{[6-({4-[{2-[({[(2S)-1′-{2-[(5R)-3-[3,5-Bis(trifluoromethyl)benzoyl]-5-(4-fluorophenyl)-1,3-oxazolidin-5-yl]ethyl}-2,3-dihydrospiro[indene-1,4′-piperidin]-2-yl]oxy}acetyl)(methyl)amino]ethyl}(methyl)carbamoyl]phenyl}amino)hexanoyl](methyl)amino}ethyl)piperidin-4-yl biphenyl-2-ylcarbamate trihydrochloride] | 2400 pM | 0.016 mg/kg | 490 pM |  | 
6 | CN(CCN1CCC(OC(=O)Nc2ccccc2-c2ccccc2)CC1)C(=O)CCNc1ccc(C(=O)N(C)CCCN(C)C(=O)CO[C@H]2Cc3ccccc3C23CCN(CC[C@@]2(c4ccc(F)cc4)CN(C(=O)c4cc(C(F)(F)F)cc(C(F)(F)F)c4)CO2)CC3)cc1 [Example 94, 1-{2-[(N-{4-[{3-[({[(2S)-1′-{2-[(5R)-3-[3,5-Bis(trifluoromethyl)benzoyl]-5-(4-fluorophenyl)-1,3-oxazolidin-5-yl]ethyl}-2,3-dihydrospiro[indene-1,4′-piperidin]-2-yl]oxy}acetyl)(methyl)amino]propyl}(methyl)carbamoyl]phenyl}-β-alanyl)(methyl)amino]ethyl}piperidin-4-yl biphenyl-2-ylcarbamate] |  | 0.0087 mg/kg |  | 2000 pM | 750 pM
7 | CN(CCN1CCC(OC(=O)Nc2ccccc2-c2ccccc2)CC1)C(=O)CCCCCCN(C)c1ccc(C(=O)N(C)CCCN(C)C(=O)CO[C@H]2Cc3ccccc3C23CCN(CC[C@@]2(c4ccc(F)cc4)CN(C(=O)c4cc(C(F)(F)F)cc(C(F)(F)F)c4)CO2)CC3)cc1 [Example 40, 1-{2-[{7-[{4-[{3-[({[(2S)-1′-{2-[(5R)-3-[3,5-Bis(trifluoromethyl)benzoyl]-5-(4-fluorophenyl)-1,3-oxazolidin-5-yl]ethyl}-2,3-dihydrospiro[indene-1,4′-piperidin]-2-yl]oxy}acetyl)(methyl)amino]propyl}(methyl)carbamoyl]phenyl}(methyl)amino]heptanoyl}(methyl)amino]ethyl}piperidin-4-yl biphenyl-2-ylcarbamate trihydrochloride] | 2000 pM | 0.0191 mg/kg | 830 pM |  | 
8 | Cc1nc(NCCCCCC(=O)N(C)CCN2CCC(OC(=O)Nc3ccccc3-c3ccccc3)CC2)sc1C(=O)N(C)CCCN(C)C(=O)CO[C@H]1Cc2ccccc2C12CCN(CC[C@@]1(c3ccc(F)cc3)CN(C(=O)c3cc(C(F)(F)F)cc(C(F)(F)F)c3)CO1)CC2 [Example 105, 1-(2-{[6-({5-[{3-[({[(2S)-1′-{2-[(5R)-3-[3,5-Bis(trifluoromethyl)benzoyl]-5-(4-fluorophenyl)-1,3-oxazolidin-5-yl]ethyl}-2,3-dihydrospiro[indene-1,4′-piperidin]-2-yl]oxy}acetyl)(methyl)amino]propyl}(methyl)carbamoyl]-4-methyl-1,3-thiazol-2-yl}amino)hexanoyl](methyl)amino}ethyl)piperidin-4-yl biphenyl-2-ylcarbamate trihydrochloride] | 1400 pM | 0.0273 mg/kg | 850 pM |  | 
9 | CN(CCN1CCC(OC(=O)Nc2ccccc2-c2ccccc2)CC1)C(=O)CCCCCNc1ccc(N(C)C(=O)CCCN(C)C(=O)CO[C@H]2Cc3ccccc3C23CCN(CC[C@@]2(c4ccc(F)cc4)CN(C(=O)c4cc(C(F)(F)F)cc(C(F)(F)F)c4)CO2)CC3)cc1 [Example 84, 1-(2-{[6-({4-[{-4-[({[(2S)-1′-{2-[(5R)-3-[3,5-Bis(trifluoromethyl)benzoyl]-5-(4-fluorophenyl)-1,3-oxazolidin-5-yl]ethyl}-2,3-dihydrospiro[indene-1,4′-piperidin]-2-yl]oxy}acetyl)(methyl)amino]butanoyl}(methyl)amino]phenyl}amino)hexanoyl](methyl)amino}ethyl)piperidin-4-yl biphenyl-2-ylcarbamate trihydrochloride] | 1200 pM | 0.0357 mg/kg | 890 pM |  | 

Source: US8476253B2, “Amide derivative” (Daiichi Sankyo Company, Limited, priority 2009, dated 2013)
